According to patent US9475766B2, “Substituted aromatic sulfur compounds and methods of their use” (Cephalon, Inc., priority 2011, dated 2016):

What was measured:
Type in all cases: cell-based
[1] = tested on: SU86 pancreatic cancer cell line (Su.86.86); assay: Cell survival and adhesion assay (luciferase), SU86; conditions: 5 hours, SU86 cells overlayed onto human mesothelial cell monolayers, read-out: relative reduction in Luciferase activity, SU86 10 μM
Protocol: (§1) SU86 is a pancreatic cancer cell line. HT29 is a colon cancer cell line. BxPC3 is a pancreatic cell line. A2780 is an ovarian cancer cell line.
(§2) BxPc-3 and Su.86.86 pancreatic and HT-29 colon and A2780 ovarian cancer cell lines were purchased from ATCC and cultured in DMEM supplemented with 10% fetal bovine serum, glutamine, penicillin, and streptomycin. All cells were cultured at 37° C. in a humidified incubator in a 5% CO2 atmosphere. The cancer cell lines were transduced with a retrovirus containing pLuc-puro, a constitutive luciferase reporter and selected in […] media. Transient transfection of a full-length human c-FLIP construct in the vector pcDNA3 was performed as previously described. Scaife et al. Cancer Research 2002, 62: 6870-78.
(§3) Pancreatic cancer cell cultures (BxPc-3 and Su.86.86) and colon cancer (HT-29) and ovarian cancer (A2780) cells that were stably transfected with a firefly luciferase construct were transiently suspended with trypsin-PBS. 10^5 cells were overlayed onto confluent monolayers of human mesothelial cells in 96-well plates while simultaneously adding various concentrations of compounds of the invention or DMSO for 5 hours. The non-adherent cells were carefully washed away from the wells twice with 100 μl/well of blocking buffer (1% BSA in PBS) and twice again with ice-cold PBS. Adherent and surviving cells were detected by luciferase activity in a luminometer as follows. The cells were lysed in 0.1% TritonX-100, 25 mM Gly-Gly (7.8), MgSO4, 4 mM EGTA, 1 mM DTT. The total protein concentration was normalized with lysis buffer. 50 μl of cell lysate was added per well of a 96-well microtiter plate. 50 μl of luciferin substrate (Promega) was added per well and then the light output determined in a luminometer.

[2] = tested on: HT29 colon cancer cell line; assay: Cell survival and adhesion assay (luciferase), HT29; conditions: HT-29, 5 hours, HT29 cells overlayed onto human mesothelial cell monolayers, read-out: relative reduction in Luciferase activity, HT29 10 μM
Protocol: as §1, §2, §3

[3] = tested on: BxPC3 pancreatic cell line; assay: Cell survival and adhesion assay (luciferase), BxPC3; conditions: BXPC-3, 5 hours, BxPC3 cells overlayed onto human mesothelial cell monolayers, read-out: relative reduction in Luciferase activity, BxPC3 10 μM
Protocol: as §1, §2, §3

[4] = tested on: A2780 ovarian cancer cell line; assay: Cell survival and adhesion assay (luciferase), A2780; conditions: 5 hours, A2780 cells overlayed onto human mesothelial cell monolayers, read-out: relative reduction in Luciferase activity, A2780 10 μM
Protocol: as §1, §2, §3

Row | SMILES | inhibition at 10 µM [1] [%] | inhibition at 10 µM [2] [%] | inhibition at 10 µM [3] [%] | inhibition at 10 µM [4] [%]
1 | CC(C)(C(=O)NCC#Cc1ccccc1)c1ccc(S(=O)(=O)/C=C/C#N)cc1 [Example 71, 2-[4-((E)-2-Cyano-ethenesulfonyl)-phenyl]-N-(3-phenyl-prop-2-ynyl)-isobutyramide] | 50 to 85 | > 85 | > 85 | > 85
2 | CC(C)(C)c1ccc(S/C=C/C#N)cc1 [Example 60, (E)-3-(4-tert-Butyl-phenylsulfanyl)-acrylonitrile] | < 10 | < 10 | < 10 | < 10
3 | CC(C)(C(=O)NC1CCCCC1)c1ccc(S(=O)(=O)/C=C/C#N)cn1 [Example 86, 2-[5-((E)-2-Cyano-ethenesulfonyl)-pyridin-2-yl]-N-cyclohexyl-isobutyramide] | 10 to 50 | > 85 | 50 to 85 | 10 to 50
4 | CC(C)(C(=O)N[C@H]1CCCCNC1=O)c1ccc(S(=O)(=O)/C=C/C#N)cc1 [Example 30, 2-[4-((E)-2-Cyano-ethenesulfonyl)-phenyl]-N—((S)-2-oxo-azepan-3-yl)-isobutyramide] | < 10 | 50 to 85 | < 10 | –
5 | COc1cccc(CNC(=O)C(C)(C)c2ccc(S(=O)(=O)/C=C/C#N)cc2)c1 [Example 44, 2-[4-((E)-2-Cyano-ethenesulfonyl)-phenyl]-N-(3-methoxy-benzyl)-isobutyramide] | 50 to 85 | > 85 | > 85 | –
6 | C#CCCNC(=O)C(C)(C)c1ccc(S(=O)(=O)/C=C/C#N)cc1 [Example 80, N-But-3-ynyl-2-[4-((E)-2-cyano-ethenesulfonyl)-phenyl]-isobutyramide] | 10 to 50 | > 85 | 50 to 85 | 50 to 85
7 | CC(C)(C)c1cc(S(=O)(=O)/C=C/C#N)ccc1OCC(=O)NCc1ccc(F)cc1 [Example 64, 2-[2-tert-Butyl-4-((E)-2-cyano-ethenesulfonyl)-phenoxy]-N-(4-fluoro-benzyl)-acetamide] | 50 to 85 | > 85 | > 85 | > 85
8 | CC(C)(C(=O)N1CCOCC1)c1ccc(S(=O)(=O)/C=C/C#N)cc1 [Example 3, (E)-3-[4-(1,1-Dimethyl-2-morpholin-4-yl-2-oxo-ethyl)-benzenesulfonyl]-acrylonitrile] | < 10 | < 10 | 10 to 50 | 10 to 50
9 | CC(C)(C)c1cccc(S(=O)(=O)/C=C/C#N)c1 [Example 54, (E)-3-(3-tert-Butyl-benzenesulfonyl)-acrylonitrile] | > 85 | < 10 | > 85 | > 85
10 | Cc1ccc2oc(C(C)(C)c3ccc(S(=O)(=O)/C=C/C#N)cc3)nc2c1 [Example 50, (E)-3-{4-[1-Methyl-1-(5-methyl-benzoxazol-2-yl)-ethyl]-benzenesulfonyl}-acrylonitrile] | 50 to 85 | > 85 | > 85 | –
11 | COCCOc1cccc(NC(=O)C(C)(C)c2ccc(S(=O)(=O)/C=C/C#N)cc2)c1 [Example 42, 2-[4-((E)-2-Cyano-ethenesulfonyl)-phenyl]-N-[3-(2-methoxy-ethoxy)-phenyl]-isobutyramide] | 50 to 85 | > 85 | 50 to 85 | –
12 | COc1ccccc1CN(C)C(=O)C(C)(C)c1ccc(S(=O)(=O)/C=C/C#N)cc1 [Example 46, 2-[4-((E)-2-Cyano-ethenesulfonyl)-phenyl]-N-(2-methoxy-benzyl)-N-methyl-isobutyramide] | 50 to 85 | > 85 | > 85 | –
13 | CN(Cc1ccc(F)cc1)C(=O)C(C)(C)c1ccc(S(=O)(=O)/C=C/C#N)cc1 [Example 41, 2-[4-((E)-2-Cyano-ethenesulfonyl)-phenyl]-N-(4-fluoro-benzyl)-N-methyl-isobutyramide] | 50 to 85 | > 85 | > 85 | –
14 | CC(C)(C(=O)N[C@H](CO)c1ccccc1)c1ccc(S(=O)(=O)/C=C/C#N)cc1 [Example 29, 2-[4-((E)-2-Cyano-ethenesulfonyl)-phenyl]-N—((S)-2-hydroxy-1-phenyl-ethyl)-isobutyramide] | < 10 | 50 to 85 | < 10 | –
15 | COc1ccccc1CNC(=O)C(C)(C)c1ccc(S(=O)(=O)/C=C/C#N)cc1 [Example 45, 2-[4-((E)-2-Cyano-ethenesulfonyl)-phenyl]-N-(2-methoxy-benzyl)-isobutyramide] | 50 to 85 | > 85 | > 85 | –
16 | CC(C)(C)OC(=O)NCCCCCCNC(=O)C(C)(C)c1ccc(S(=O)(=O)/C=C/C#N)cc1 [Example 33, (6-{2-[4-((E)-2-Cyano-ethenesulfonyl)-phenyl]-2-methyl-propionylamino}-hexyl)-carbamic acid tert-butyl ester] | < 10 | 50 to 85 | 10 to 50 | –
17 | Cc1cnc(C(C)(C)c2ccc(S(=O)(=O)/C=C/C#N)cc2)o1 [Example 51, (E)-3-{4-[1-Methyl-1-(5-methyl-oxazol-2-yl)-ethyl]-benzenesulfonyl}-acrylonitrile] | 50 to 85 | > 85 | > 85 | –
18 | CC(C)(C)OC(=O)NCCNC(=O)C(C)(C)c1ccc(S(=O)(=O)/C=C/C#N)cc1 [Example 32, (2-{2-[4-((E)-2-Cyano-ethenesulfonyl)-phenyl]-2-methyl-propionylamino}-ethyl)-carbamic acid tert-butyl ester] | 10 to 50 | 50 to 85 | 10 to 50 | –
19 | CC(C)(c1ccc(S(=O)(=O)/C=C/C#N)cc1)c1nnc(C2CCCCC2)o1 [Example 53, (E)-3-{4-[1-(5-Cyclohexyl-[1,3,4]oxadiazol-2-yl)-1-methyl-ethyl]-benzenesulfonyl}-acrylonitrile] | 50 to 85 | > 85 | > 85 | –
20 | CC(C)(C(=O)NCc1ccc(S(N)(=O)=O)cc1)c1ccc(S(=O)(=O)/C=C/C#N)cc1 [Example 26, 2-[4-((E)-2-Cyano-ethenesulfonyl)-phenyl]-N-(4-sulfamoyl-benzyl)-isobutyramide] | < 10 | < 10 | < 10 | –
21 | CC(C)(C(=O)NNC(=O)C1CCCCC1)c1ccc(S(=O)(=O)/C=C/C#N)cc1 [Example 52, Cyclohexanecarboxylic acid N′-{2-[4-((E)-2-cyano-ethenesulfonyl)-phenyl]-2-methyl-propionyl}-hydrazide] | 10 to 50 | 50 to 85 | < 10 | –
22 | COCCOCc1ccc(NC(=O)C(C)(C)c2ccc(S(=O)(=O)/C=C/C#N)cc2)cc1 [Example 31, 2-[4-((E)-2-Cyano-ethenesulfonyl)-phenyl]-N-[4-(2-methoxy-ethoxymethyl)-phenyl]-isobutyramide] | 10 to 50 | 50 to 85 | 50 to 85 | –
23 | CC(C)(C(=O)Nc1cccc(OCC(=O)O)c1)c1ccc(S(=O)(=O)/C=C/C#N)cc1 [Example 43, (3-{2-[4-((E)-2-Cyano-ethenesulfonyl)-phenyl]-2-methyl-propionylamino}-phenoxy)-acetic acid] | < 10 | < 10 | < 10 | –
24 | CC(C)(C(=O)NCc1ccccc1F)c1ccc(S(=O)(=O)/C=C/C#N)cc1 [Example 40, 2-[4-((E)-2-Cyano-ethenesulfonyl)-phenyl]-N-(2-fluoro-benzyl)-isobutyramide] | 50 to 85 | > 85 | > 85 | –
25 | CC(C)(C(=O)N1CCCCC1)c1ccc(S(=O)(=O)/C=C/C#N)cc1 [Example 28, (E)-3-[4-(1,1-Dimethyl-2-oxo-2-piperidin-1-yl-ethyl)-benzenesulfonyl]-acrylonitrile] | 10 to 50 | > 85 | 50 to 85 | –
26 | CC(C)(C(=O)NCc1ccc(S(C)(=O)=O)cc1)c1ccc(S(=O)(=O)/C=C/C#N)cc1 [Example 27, 2-[4-((E)-2-Cyano-ethenesulfonyl)-phenyl]-N-(4-methanesulfonyl-benzyl)-isobutyramide] | < 10 | 10 to 50 | < 10 | –
